# Assay results: publication PMC6272176, “Antileishmanial and Cytotoxic Compounds from Valeriana wallichii and Identification of a Novel Nepetolactone Derivative” (Molecules, 2015)
# Where two headings read alike, the source gives them in different places.
# Tests used:
# [1] = test system: L. major promastigotes; test: Antileishmanial activity against L. major promastigotes, AlamarBlue assay; type: cell-based, Leishmania major; settings: for antileishmanial activity (in words): verbal rating; for IC50: Leishmania major, read-out: IC50 (L. major)
# Method: (§1) All compounds isolated were subjected to the evaluation of their antileishmanial activity against L. major promastigotes in vitro and cytotoxicity against macrophages (J774.1 murine cell line) using the corresponding AlamarBlue^© assays (cf. Table 2).
# (§2) Antileishmanial activity against L. major promastigotes and cytotoxicity against a murine macrophage cell line (J774.1) was determined using an AlamarBlue^© assay. Methods for both procedures have been reported previously. IC50 values are presented as mean values of two experiments.
# [2] = test system: J774.1 murine macrophage cell line; test: Cytotoxicity against macrophages (J774.1), AlamarBlue assay; type: cell-based; settings: for IC50: Mus musculus; for cytotoxicity (in words): verbal rating
# Method: as §1, §2
# [3] = L. major promastigotes in vitro
# [4] = L. major promastigotes in vitro, values marked *: pure or synthesized compounds, given in µM, mean of two experiments
# [5] = J774.1 macrophages, values marked *: pure or synthesized compounds, given in µM, mean of two experiments, read-out: IC50 (J774.1)
# [6] = L. major promastigotes in vitro, fractions containing isolated compounds, mean of two experiments
# [7] = J774.1 macrophages, fractions containing isolated compounds, mean of two experiments, read-out: IC50 (J774.1)
# [8] = J774.1 macrophages, fractions containing isolated compounds, mean of two experiments
molecule,measurement,setting,value
"CC1(C)C2CCC1(C)C(OC(=O)C=Cc1ccc(O)c(O)c1)C2 (stereo not drawn) [Bornyl caffeate (1), bornyl caffeate]",antileishmanial activity (in words),[1]; [3],moderate antileishmanial activity
same,IC50,[1]; [4],48.8 µM
same,IC50,[2]; [5],8.3 µM
"CC(C)CC(=O)OC1CC2CCC1(C)C2(C)C (stereo not drawn) [Bornyl isovalerate (13), bornyl isovalerate]",antileishmanial activity (in words),[1]; [3],no antileishmanial activity
same,IC50,[1]; [4],> 100 µM
same,IC50,[2]; [5],> 100 µM
"CCCCCCCCCCCCCCCCOP(=O)([O-])OCC[N+](C)(C)C [Miltefosine, reference compound]",IC50,[2]; [5],56.5 µM
"CC(C)C1CCC2(C)CCCC(=O)C2(C)C1 (stereo not drawn) [Valeranone (12), valeranone]",antileishmanial activity (in words),[1]; [3],moderate
same,IC50,[1]; [6],60.8 µg/mL
same,cytotoxicity (in words),[2]; J774.1 macrophages,moderate
same,IC50,[2]; [7],42.6 µg/mL
"COc1ccc(C=CC(=O)OC2CC3CCC2(C)C3(C)C)cc1O (stereo not drawn) [compound 2, bornyl isoferulate]",antileishmanial activity (in words),[1]; [3],moderate antileishmanial activity
same,IC50,[1]; [6],16.7 µg/mL
same,IC50,[2]; [7],34.7 µg/mL
"CC1CCC2(OC3OC(CO)C(O)C(O)C3O)C1C(=O)OC2(C)COC(=O)C=Cc1ccc(O)cc1 [compound 4, {[(3S,4S,7R,8S)-1-Oxo-3,7-dimethyl-4-(O-β-D-glucopyranosyl)oxy]hexahydrocyclopenta[c]furan-3-yl}-methyl-trans-4-hydroxycinnamate]",IC50,[1]; [6],> 100 µg/mL
same,IC50,[2]; [7],> 100 µg/mL
"C[C@@H]1CC[C@H]2[C@H](CO)COC(=O)[C@H]21 [compound 5, (4R,5S,8R,9S)-4-(Hydroxymethyl)-8-methylhexahydro-cyclopenta[c]pyranone]",IC50,[1]; [6],> 100 µg/mL
same,IC50,[2]; [7],17.5 µg/mL
CCC(C)CC(=O)OC1OC=C(COC(=O)CC(C)C)C2CC(OC(C)=O)C(O)(COC(=O)C(OC(=O)CC(C)C)C(C)C)C12 (stereo not drawn) [compound 6],IC50,[1]; [6],1.9 µg/mL
same,IC50,[2]; [7],< 0.8 µg/mL
CC(=O)OC1CC2C(COC(=O)CC(C)C)=COC(OC(=O)CC(C)C)C2C1(O)COC(=O)CC(C)C (stereo not drawn) [compound 7],IC50,[1]; [6],0.8 µg/mL
same,IC50,[2]; [7],< 0.8 µg/mL
CC(=O)OCC1=COC(OC(=O)CC(C)C)C2C1=CC(OC(=O)CC(C)C)C2(O)COC(=O)CC(C)C (stereo not drawn) [compound 8],IC50,[1]; [4],1.7 µM
same,IC50,[2]; [5],1 µM
"CC(=O)OC1CC2C(COC(=O)CC(C)C)=COC(OC(=O)CC(C)C)C2C1(O)CCl (stereo not drawn) [compound 9, valechlorine]",IC50,[1]; [6],2.3 µg/mL
same,IC50,[2]; [7],1.9 µg/mL
"COc1cc(C2c3cc4c(cc3C(O)C3COC(=O)C23)OCO4)cc(OC)c1O (stereo not drawn) [compound 15, 4'-demethylpodophyllotoxin]",IC50 (L. major),[1]; [6],>100 µg/mL
same,antileishmanial activity (in words),[1]; [3],no antileishmanial activity
same,IC50 (J774.1),[2]; [8],<0.8 µg/mL
"COc1cc([C@@H]2c3cc4c(cc3[C@H](O)[C@H]3COC(=O)[C@H]23)OCO4)cc(OC)c1OC [compound 16, podophyllotoxin]",antileishmanial activity (in words),[1]; [3],no antileishmanial activity
same,IC50,[1],> 100 µg/mL
same,IC50,"[2]; J774.1, read-out: IC50 (J774.1)",< 0.8 µg/mL
"CC1CC(O)C2C1CC1CCC2(C)OC1(C)C (stereo not drawn) [α-Kessyl alcohol (11), α-kessyl alcohol]",antileishmanial activity (in words),[1]; [3],rather good antileishmanial activity
same,IC50,[1]; [6],5.8 µg/mL
same,IC50,[2]; [7],1.7 µg/mL
"CC(C)=CCCC(C)C1(O)CC=C(C)CC1 (stereo not drawn) [β-Bisabolol (10), β-bisabolol]",antileishmanial activity (in words),[1]; [3],moderate
same,IC50,[1]; [6],52.2 µg/mL
same,cytotoxicity (in words),[2]; J774.1 macrophages,moderate
same,IC50,[2]; [7],37.1 µg/mL
pinoresinol [Pinoresinol (17)],IC50 (L. major),[1]; [6],>100 µg/mL
same,antileishmanial activity (in words),[1]; [3],no antileishmanial activity
same,IC50 (J774.1),[2]; [8],<0.8 µg/mL
